Series [1] relates to human epidermal melanocyte (HEM). Description: Cell viability, MTT assay, HEMs. In kind it is cell-based. The conditions noted are these: FIG. 6b. As for the experimental part: (§1) Cell viability was measured by using a 3-(4,5-dimethylthiazol-2-yl)-2,5-diphenyltetrazolium bromide (MTT) assay. B16-F10 cell lines were treated with test peptides at various concentrations for 72 hours. The cells were washed with PBS and cultured in 100 μl of culture fluid, to which 1 mg/mL of MTT (Amresco, Solon, Ohio, USA) was added, for three hours. After that, the culture fluid was removed therefrom and formazan accumulated inside the cells was extracted with 100 μl of dimethyl sulfoxide (DMSO). Absorbance of the extracted solution was measured at 595 nm by using SPECTROstar Nano microplate reader (BMG LABTECH GmbH, Ortenberg, Germany).
(§2) After the B16-F10 cells and HEM were treated with the peptides of Examples 1 to 4 according to the same method, cell viability was measured and the results thereof were summarized in FIGS. 1b, 2b, 3b, 4b, 5b, 6b and 7a respectively.

Series [2] has the same test system. Put plainly: Melanogenesis inhibitory activity (intracellular and extracellular melanin) in HEMs stimulated with α-MSH. Type of series: cell-based. As to conditions: FIG. 6a. Here is the method: (§3) Cells were cultured in a humidified incubator at 37° C. and 5% CO2. Murine melanoma B16-F10 cell lines were cultured in Dulbecco' Modified Eagle Medium containing 10% fetal bovine serum and antibiotics (100 U/mL of penicillin, 0.1 mg/mL of streptomycin and 0.25 μg/mL of amphotericin B), which were purchased from the American Type Culture Collection (Manassas, Va., USA). A human epidermal melanocyte (HEM), derived from a pigmented human neonatal foreskin, was purchased from Cascade Biologics (Portland, Oreg., USA) and cultured in medium 254 containing human melanocyte growth supplements (Cascade Biologics) and antibiotics.
A melanin formation inhibitory effect of the peptide to be analyzed was confirmed by using B16-F10 cell lines and HEM. The B16-F10 cells were treated with test peptides at various concentrations and stimulated for 72 hours by using 100 nM of α-MSH. Hexapeptide B6 (Phe-Ser-His-His-Leu-Gly-NH2) (SEQ ID NO: 20), p-coumaric acid and arbutin were used as a control group. A level of extracellular melanin was measured by using a conditioned medium in which cells were previously cultured. Intracellular melanin was extracted at 60° C. for 60 minutes by using 1.0 M NaOH. A content of melanin was spectroscopically measured by measuring absorbance at 475 nm and resultant values were normalized with regard to a total protein content of cells by using Bio-Rad DC assay. […]

Series [3] has as its system B16-F10 cells. Put plainly: Melanogenesis inhibitory activity (melanin content) in B16-F10 cells stimulated with α-MSH. Type of series: cell-based, murine. As to conditions: for melanogenesis inhibitory effect of glycine derivatives (melanin content): various concentrations, FIG. 5a; for melanogenesis inhibitory effect of short peptides (melanin content): peptide 30 μM to 100 μM, FIG. 4a. Here is the method: as §3
A melanin formation inhibitory effect of the peptide to be analyzed was confirmed by using B16-F10 cell lines and HEM. The B16-F10 cells were treated with test peptides at various concentrations and stimulated for 72 hours by using 100 nM of α-MSH. Hexapeptide B6 (Phe-Ser-His-His-Leu-Gly-NH2) (SEQ ID NO: 20), p-coumaric acid and arbutin were used as a control group. A level of extracellular melanin was measured by using a conditioned medium in which cells were previously cultured. Intracellular melanin was extracted at 60° C. for 60 minutes by using 1.0 M NaOH. A content of melanin was spectroscopically measured by measuring absorbance at 475 nm and resultant values were normalized with regard to a total protein content of cells by using Bio-Rad DC assay.

The subject of series [4] is B16-F10 cells. Description: Cell viability, MTT assay, B16-F10 cells. Type of series: cell-based, murine. The conditions noted are these: up to 300 μM, FIG. 7a. Here is the method:
as §1, §2

The subject of series [5] is dopachrometautomerase (DCT). Description: Western blotting, DCT protein level in B16-F10 cells. Type of series: cell-based, murine. The conditions noted are these: both in the presence and in the absence of α-MSH, FIG. 8b. As for the experimental part:
(§4) Western blotting was performed as described in a document [Study on phenolic compounds and novel peptides inhibiting UVB- and PM10-induced MMP1 expression and melanogenesis in skin cells. PhD Thesis 2017. Kyungpook National University, Korea]. B16-F10 cells were dissolved in 10 mM of cold Tris-HCl buffer solution (pH 7.2) containing 150 mM of NaCl, 5 mM of EDTA, 0.1% sodium dodecyl sulfate (SDS), 1% triton X-100, 1% deoxycholate, 1 mM of phenylmethylsulphonyl fluoride and protease inhibitor cocktail (Roche). A part of cytolysate (30 μg of protein) was mixed with Laemmli sample buffer, then heated at 95° C. for five minutes to be denaturalized, and then was subject to electrophoresis in 10% SDS-polyacrylamide gel. After the electrophoresis, protein was transferred from gel to polyvinylidene difluoride membrane (Amersham Pharmacia, Little Chalfont, UK). Primary antibodies for TYR, TYRP1, DCT, MITF and @-actin were purchased from Santa Cruz Biotechnology (Santa Cruz, Calif., USA). Primary antibodies for CREB, phospho-CREB (Ser133), extracellular signal-regulated kinase (ERK) and phospho-ERK (Thr202/Tyr204) were purchased from Cell Signaling (located in Danvers, Mass., USA). […] A protein band was visualized by using picoEPD Western Reagent kit (Elpis-Biotech, Daejeon, South Korea), and a depth of image was analyzed by using National Institutes of Health ImageJ program.
(In general: In western blotting, separated proteins are transferred to a membrane and probed.)

In series [6] the test system is extracellular signal-regulated kinase (ERK). Put plainly: Western blotting, phosphorylation of ERK in B16-F10 cells. In kind it is cell-based, murine. As to conditions: stimulated with α-MSH, FIG. 9a. As for the experimental part: as §4, with “program. […]” for “program.”
The test system of series [7] is cAMP-responsive element binding protein (CREB). Description: Western blotting, phosphorylation of CREB in B16-F10 cells. Type of series: cell-based, murine. The conditions noted are these: stimulated with α-MSH, FIG. 9a. Here is the method:
as §4, with “program. […]” for “program.”

Series [8] has as its system microphthalmia-associated transcription factor (MITF). Put plainly: Western blotting, MITF protein level in B16-F10 cells. In kind it is cell-based, murine. As to conditions: stimulated with α-MSH, FIG. 9b. Here is the method:
as §4, with “program. […]” for “program.”

The subject of series [9] is tyrosinase-related protein 1 (TYRP1). Description: Western blotting, TYRP1 protein level in B16-F10 cells. In kind it is cell-based, murine. The conditions noted are these: both in the presence and in the absence of α-MSH, FIG. 8b. Here is the method:
as §4

Series [10] concerns tyrosinase (TYR). Description: TYR activity assay in cell-free extract of treated B16-F10 cells. Type of series: cell-based, murine. As to conditions: treated 60 minutes, then 100 nM α-MSH 24 hours, FIG. 8a. Here is the method: B16-F10 cells were treated with glycinamide-HCl for 60 minutes and stimulated for 24 hours by using 100 nM of α-MSH. The cells were dissolved in 10 mM of cold Tris-HCl buffer solution (pH 7.4) containing 120 mM of sodium chloride, 25 mM of potassium chloride, 2.0 mM of ethylene glycol tetraacetic acid, 1.0 mM of ethylenediaminetetraacetic acid, 0.5% triton X-100, protease inhibitor cocktail (Roche, Mannheim, Germany). Cytolysate was centrifuged at 13,000×g at 4° C. for 15 minutes to obtain a cell-free extract therefrom. TYR activity was measured by using L-tyrosine and L-3,4-dihydroxyphenylalanine. A reaction mixture (200 μL) includes 100 mM of sodium phosphate (pH 6.8), 1.0 mM of L-tyrosine, 42 μM of L-3,4-dihydroxy phenylalanine and a cell-free extract (40 μg of protein), which was cultured at 37° C. A change in absorbance was measured at 475 nm by using Spectrostar Nano microplate reader.

In series [11] the test system is tyrosinase (TYR). Put plainly: Western blotting, TYR protein level in B16-F10 cells. Type of series: cell-based, murine. As to conditions: both in the presence and in the absence of α-MSH, FIG. 8b. Here is the method: as §4

Entries after “also recorded” stand apart in the source; their conditions may differ. Ends that are not written are not given here. Peptide text beside a SMILES is read from it.

Consider `N=C(N)NCCC[C@H](N)C(=O)N[C@@H](Cc1ccccc1)C(=O)N[C@@H](Cc1c[nH]c2ccccc12)C(=O)NCC(N)=O` [D3, Arg-Phe-Trp-Gly-NH2] (H-RFWG-NH2), for which, in series [1], the “HEMs cell viability / cytotoxicity” value is reported as “almost no cytotoxicity”.
Consider `CC(C)C[C@H](NC(=O)[C@@H](N)CCCNC(=N)N)C(=O)N[C@@H](Cc1c[nH]c2ccccc12)C(=O)NCC(N)=O` [D5, Arg-Leu-Trp-Gly-NH2] (H-RLWG-NH2), for which the “HEMs cell viability / cytotoxicity” value in series [1] is listed as “almost no cytotoxicity”.
Still for that read-out and setting: next, `NC(=O)CNC(=O)[C@@H](N)Cc1c[nH]c2ccccc12` [F1, Trp-Gly-NH2] (H-Trp-Gly-NH2): “almost no cytotoxicity”.
For `NCC(N)=O` [G1, glycinamide], the “increase in content of intracellular and extracellular melanins in HEMs” value in [2] was “weakened”. The “HEMs cell viability / cytotoxicity” value in series [1] is “almost no cytotoxicity”. For the same compound, in the series with B16-F10 cells [3] (100 nM α-MSH, 72 hours), the “melanogenesis inhibitory effect of glycine derivatives (melanin content)” value is “maintains anti-melanogenesis activity”.
Regarding `NCC(=O)O` [free glycine, glycine, reference compound], in the series with B16-F10 cells [3] (100 nM α-MSH, 72 hours), the “melanogenesis inhibitory effect of glycine derivatives (melanin content)” value is given as “no activity”.
As for `Cl.NCC(N)=O` [glycinamide-HCl], in the series on B16-F10 cells [4], the “cytotoxicity in B16-F10 cells” value is listed as “did not cause any cytotoxicity”. Further, in series [5], the “protein level of DCT” value is reported as “significantly reduced”. For the same compound, the “phosphorylation of ERK” value in series [6] was “did not affect”. The “phosphorylation of CREB” value in [7] is reported as “inhibited”. In series [8], the “level of MITF expression increased by α-MSH” value is listed as “weakened”. The “level of intracellular and extracellular melanins” value with B16-F10 cells [3] (25-100 μM, cells stimulated with α-MSH, FIG. 7b) is reported as “reduced”. Besides, the “protein level of TYRP1” value in series [9] is “significantly reduced”. The “TYR activity increased by α-MSH” value in the series with tyrosinase (TYR) [10] is “significantly weakened”. The “protein level of TYR” value in the series on tyrosinase (TYR) [11] was “significantly reduced”.
Regarding Arg-Trp-Gly-NH2 [E7], in the series on B16-F10 cells [3] (100 nM α-MSH, 72 hours), the “melanogenesis inhibitory effect of short peptides (melanin content)” value is “melanogenesis inhibitory activity higher than that of other tripeptides”.
For Leu-Trp-Gly-NH2 [E6], in the series on B16-F10 cells [3] (100 nM α-MSH, 72 hours), the “melanogenesis inhibitory effect of short peptides (melanin content)” value was “melanogenesis inhibitory activity higher than that of other tripeptides”.
As to Phe-Arg-Trp-Gly (FRWG-NH2) [D9], the “melanogenesis inhibitory activity compared with p-coumaric acid and arbutin” value with B16-F10 cells [3] (peptide 10-30 μM, 100 nM α-MSH, 72 hours, molar comparison, FIG. 3a) was “melanogenesis inhibitory activity at a concentration lower than that of p-coumaric acid and arbutin; also recorded: the most powerful melanogenesis inhibitory effect”.
Consider “Phe-Ser-His-His-Leu-Gly-NH2 (FSHHLG-NH2) [Hexa-peptide B6, reference compound]”, for which the “melanogenesis inhibitory effect of individual tetrapeptides (melanin content)” value with B16-F10 cells [3] (peptide 30 μM and 100 μM, 100 nM α-MSH, 72 hours, FIG. 2a) was “showed a melanogenesis inhibitory effect at 100 μM only”.
Turning to Phe-Trp-Gly-NH2 [E5], the “increase in content of intracellular and extracellular melanins in HEMs” value in series [2] is “weakened”. The “melanogenesis inhibitory effect of short peptides (melanin content)” value in the series with B16-F10 cells [3] (100 nM α-MSH, 72 hours) is “melanogenesis inhibitory activity higher than that of other tripeptides”.

The values above are taken from patent publication US20230190857A1, “PEPTIDE WITH AMIDATED CARBOXY TERMINUS HAVING MELANOGENESIS INHIBITORY ACTIVITY AND COMPOSITION COMPRISING SAME” (RUBY CROWN CO. LTD., priority 2018, published 2023).
